In ChEMBL document CHEMBL1201862, “PubChem BioAssay data set” (2004):
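Exposure lasted 48 hours, with cells grown in 96-well plates and compounds tested at five concentrations. GI50 marks 50% less growth.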 Active and inactive are the calls of the source. Cut-off read from the data, not from the text of the source: active = GI50 up to about 1.1 µM and inactive = higher.

How the values were obtained:
Assay in all cases: NCI-60 cell line screen, 48 h
786-0 = system: 786-0
A549 = system: A549
ACHN = system: ACHN
COLO 205 = system: COLO 205
DMS-114 = system: DMS-114
HCT-116 = system: HCT-116
HOP-92 = system: HOP-92
K562 = system: K562
NCI-H226 = system: NCI-H226
NCI-H460 = system: NCI-H460
OVCAR-8 = system: OVCAR-8
SF-295 = system: SF-295
SK-MEL-28 = system: SK-MEL-28
SK-MEL-2 = system: SK-MEL-2
SNB-19 = system: SNB-19
TK-10 = system: TK-10
UACC-62 = system: UACC-62
UO-31 = system: UO-31
BT-549 = system: BT-549
T47D = system: T47D

Measured: GI50

CC(C)C1COC(C(C)(C)C2=N[C@@H](C(C)C)CO2)=N1 (some centres not stated)
inactive: 786-0 > 100 µM | A549 > 100 µM | ACHN > 100 µM | COLO 205 > 100 µM | DMS-114 > 100 µM | HCT-116 > 100 µM | HOP-92 70.3 µM | K562 > 100 µM | NCI-H226 > 100 µM | NCI-H460 > 100 µM | OVCAR-8 > 100 µM | SF-295 > 100 µM | SK-MEL-28 > 100 µM | SK-MEL-2 > 100 µM | SNB-19 > 100 µM | TK-10 > 100 µM | UACC-62 > 100 µM | UO-31 > 100 µM

NC(=O)NC(=O)C1CCC(=O)N1S(=O)(=O)c1ccc(Cl)cc1 (configuration not stated)
inactive: 786-0 > 100 µM | A549 > 100 µM | ACHN > 100 µM | COLO 205 > 100 µM | DMS-114 > 100 µM | HCT-116 > 100 µM | HOP-92 > 100 µM | K562 > 100 µM | NCI-H226 > 100 µM | NCI-H460 > 100 µM | OVCAR-8 > 100 µM | SF-295 > 100 µM | SK-MEL-28 > 100 µM | SK-MEL-2 > 100 µM | SNB-19 > 100 µM | TK-10 > 100 µM | UACC-62 > 100 µM | UO-31 > 100 µM

CCOCC(=O)N[C@H]1CCc2cc(OC)c(OC)c(OC)c2-c2ccc(OC)c(=O)cc21
active: 786-0 0.0199 µM | A549 0.0211 µM | ACHN 0.0962 µM | BT-549 < 32.1 nM | COLO 205 0.0137 µM | DMS-114 0.0148 µM | HCT-116 0.014 µM | HOP-92 0.0303 µM | K562 < 0.0128 µM | NCI-H226 0.0762 µM | NCI-H460 0.0165 µM | OVCAR-8 0.0194 µM | SF-295 0.0206 µM | SK-MEL-2 0.0174 µM | SNB-19 0.164 µM | UACC-62 0.0153 µM
inactive: SK-MEL-28 2.23 µM | T47D > 100 µM | TK-10 2.46 µM | UO-31 3.56 µM

CN(C)CCNC(=O)c1cccc2ccc(-c3cccnc3)nc12
inactive: 786-0 5.89 µM | A549 3.7 µM | ACHN 3.44 µM | COLO 205 3.13 µM | DMS-114 6.52 µM | HCT-116 3.24 µM | HOP-92 4.39 µM | K562 4.74 µM | NCI-H226 6.84 µM | NCI-H460 2.94 µM | OVCAR-8 4.3 µM | SF-295 5.69 µM | SK-MEL-28 11.6 µM | SK-MEL-2 8.57 µM | SNB-19 4.14 µM | TK-10 2.48 µM | UACC-62 4.73 µM | UO-31 1.98 µM

COC1C(O)CC(OC2CC(Oc3cc4cc5c(c(O)c4c(O)c3C)C(=O)[C@@H](OC3CC(OC4CC(OC6CC(C)(O)C(OC(C)=O)C(C)O6)C(O)C(C)O4)C(O)C(C)O3)[C@H]([C@H](OC)C(=O)[C@@H](O)[C@@H](C)O)C5)OC(C)C2OC(C)=O)OC1C (some centres not stated) [CHROMOMYCIN]
active: A549 0.00382 µM | ACHN 4.71e-05 µM | BT-549 0.0149 nM | COLO 205 < 0.01 µM | DMS-114 2.14e-05 µM | HCT-116 0.00333 µM | HOP-92 < 0.01 µM | K562 0.00566 µM | NCI-H226 < 0.01 µM | NCI-H460 < 0.0133 µM | OVCAR-8 < 0.01 µM | SF-295 0.0139 µM | SK-MEL-28 0.00368 µM | SK-MEL-2 0.00361 µM | SNB-19 0.00424 µM | T47D < 0.01 µM | TK-10 0.000119 µM | UACC-62 0.00295 µM | UO-31 0.0614 µM

C/N=C1\S/C(=N\c2ccc(N(C)C)cc2)N1C
inactive: 786-0 42.8 µM | A549 43 µM | COLO 205 39.4 µM | DMS-114 17.9 µM | HCT-116 32.7 µM | HOP-92 21.8 µM | K562 29.7 µM | NCI-H226 52.1 µM | NCI-H460 36.3 µM | OVCAR-8 35.1 µM | SF-295 40.4 µM | SK-MEL-28 38.8 µM | SK-MEL-2 33.9 µM | SNB-19 42.2 µM | TK-10 55.7 µM | UACC-62 33.5 µM | UO-31 31.6 µM

CCOC(=O)/C(O)=C/c1cc(OC)cc(=O)o1
inactive: 786-0 > 100 µM | A549 > 100 µM | ACHN > 100 µM | COLO 205 > 100 µM | DMS-114 > 100 µM | HCT-116 > 100 µM | HOP-92 > 100 µM | K562 > 100 µM | NCI-H226 > 100 µM | NCI-H460 > 100 µM | OVCAR-8 > 100 µM | SF-295 > 100 µM | SK-MEL-28 > 100 µM | SK-MEL-2 > 100 µM | SNB-19 > 100 µM | TK-10 > 100 µM | UACC-62 > 100 µM | UO-31 > 100 µM

Nc1nnc2nc(CC(=O)/C=C/c3ccccc3)c(=O)[nH]n12
inactive: 786-0 > 100 µM | A549 > 100 µM | ACHN > 100 µM | COLO 205 > 100 µM | DMS-114 > 100 µM | HCT-116 > 100 µM | HOP-92 > 100 µM | K562 > 100 µM | NCI-H226 > 100 µM | NCI-H460 > 100 µM | OVCAR-8 > 100 µM | SF-295 > 100 µM | SK-MEL-28 > 100 µM | SK-MEL-2 > 100 µM | SNB-19 > 100 µM | TK-10 > 100 µM | UACC-62 > 100 µM | UO-31 > 100 µM

O=C1N2Cc3c4ccc5c3CN3C(=O)N6Cc7c(ccc(c7CN1C6(c1ccccc1)C23c1ccccc1)OCCOCCOc1cc(Br)c(Br)cc1OCCOCCO4)OCCOCCOc1cc(Br)c(Br)cc1OCCOCCO5 (configuration not stated)
inactive: 786-0 > 100 µM | A549 > 100 µM | ACHN 47.8 µM | DMS-114 41.2 µM | HCT-116 > 100 µM | HOP-92 39.2 µM | K562 > 100 µM | NCI-H226 > 100 µM | NCI-H460 > 100 µM | OVCAR-8 > 100 µM | SK-MEL-28 > 100 µM | SK-MEL-2 91 µM | SNB-19 > 100 µM | TK-10 65.9 µM | UACC-62 > 100 µM | UO-31 > 100 µM
